Measured values reported in paper PMC2996484 (Journal of neurochemistry, 2010).

What was measured:
[1] = tested on: PKC phosphorylation of the D1DAR; assay: In situ phosphorylation assay, HEK293T cells expressing the D1DAR; format: cell-based, rat; conditions: cells treated 30 min with 1 μM phorbol ester, Fig. 1A
WT D1DAR = WT D1DAR (Rattus norvegicus, UniProt P18901); assay: cAMP accumulation assay, HEK293T cells expressing WT D1DAR; format: cell-based; conditions: 1 μM PMA 30 min or 3 μM Gö6983 1 hr
PKC-null D1DAR = PKC-null D1DAR (Rattus norvegicus, UniProt P18901, S259A/S397A/S398A/S417A/S421A); assay: cAMP accumulation assay, HEK293T cells expressing PKC-null D1DAR; format: cell-based; conditions: 1 μM PMA 30 min or 3 μM Gö6983 1 hr
PKC-null D1DAR, sequence (P18901 whole entry S259A/S397A/S398A/S417A/S421A): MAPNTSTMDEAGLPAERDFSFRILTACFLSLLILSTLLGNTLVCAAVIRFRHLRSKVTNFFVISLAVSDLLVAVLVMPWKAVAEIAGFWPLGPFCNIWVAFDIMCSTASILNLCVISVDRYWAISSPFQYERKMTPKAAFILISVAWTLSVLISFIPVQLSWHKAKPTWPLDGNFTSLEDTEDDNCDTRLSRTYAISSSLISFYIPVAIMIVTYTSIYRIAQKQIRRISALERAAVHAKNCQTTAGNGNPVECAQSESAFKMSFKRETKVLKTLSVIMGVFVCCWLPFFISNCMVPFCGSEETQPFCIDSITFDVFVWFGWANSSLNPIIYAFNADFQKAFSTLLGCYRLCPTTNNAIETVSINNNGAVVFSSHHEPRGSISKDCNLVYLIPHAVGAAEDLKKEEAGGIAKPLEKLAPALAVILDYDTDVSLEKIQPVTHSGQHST

WT D1DAR, sequence (P18901 whole entry): as the sequence (P18901 whole entry S259A/S397A/S398A/S417A/S421A) above, with A259S, A397S, A398S, A417S, A421S counted along it

Compound	D1DAR phosphorylation above basal [1]	effect of pretreatment on maximal DA-stimulated cAMP accumulation (WT D1DAR)	effect of pretreatment on maximal DA-stimulated cAMP accumulation (PKC-null D1DAR)
CCCCCCCCCC(=O)O[C@@H]1[C@@H](C)[C@@]2(O)[C@@H](C=C(CO)C[C@@]3(O)C(=O)C(C)=C[C@@H]23)[C@@H]2C(C)(C)[C@]12OC(=O)CCCCCCCCC [4αPDD, 4α-phorbol-12,13-didecanoate]	inactive		
COc1ccc2c(c1)c(C1=C(c3c[nH]c4ccccc34)C(=O)NC1=O)cn2CCCN(C)C [Gö6983]		potentiation of the maximal amount of D1DAR-stimulated cAMP accumulation	no longer displays an enhancement of cAMP accumulation
CCCC(=O)O[C@@H]1[C@@H](C)[C@@]2(O)[C@@H](C=C(CO)C[C@]3(O)C(=O)C(C)=C[C@@H]23)[C@@H]2C(C)(C)[C@]12OC(=O)CCC [PDBu, phorbol 12,13 dibutyrate]	robust increase in phosphorylation		
CCCCCCCCCCCCCC(=O)O[C@@H]1[C@@H](C)[C@@]2(O)[C@@H](C=C(CO)C[C@]3(O)C(=O)C(C)=C[C@@H]23)[C@@H]2C(C)(C)[C@]12OC(C)=O [PMA, phorbol 12-myristate 13-acetate]	robust increase in phosphorylation	potentiation of the maximal amount of D1DAR-stimulated cAMP accumulation	potentiation of maximal cAMP accumulation
